Results published in patent US8129527B2, “Analogs of dehydrophenylahistins and their therapeutic use” (Nereus Pharmacuticals, Inc., priority 2006, dated 2012).
Read-outs that look alike come from different tables or passages of the source. Values belong to the compound of their own block, whether it stands above or below them.

Tests used:
HT-29 human colon cells = assay: Tumor cytotoxicity assay, resazurin fluorescence, 48 h (Example 6); format: cell-based; settings: Homo sapiens
[1] = system: P388 murine leukemia cells; assay: Cytotoxic effect in P388 cells; format: cell-based; settings: Mus musculus, P388, read-out: IC50 (nM) P-388; Table 2
Description: The cytotoxic effects of phenylahistin, dehydrophenylahistin and various derivatives of dehydrophenylahistin were examined in P388 murine leukemia cells, HT-29 human colon cells, and PC-3 prostatic adenocarcinoma cells.

Aspergillus fumigatus = assay: Antifungal susceptibility testing, broth dilution (MIC/MFC); format: cell-based; settings: Aspergillus fumigatus, read-out: MIC
Experimental: (§1) Specifically, disclosed compounds were evaluated alongside commercially available microtubulin inhibitors as well as recognized antifungal agents.
(§2) Microorganisms against which these compounds were tested included: Candida albicans, Candida glabrata, Aspergillus fumigatus, Trichophyton rubrum, Trichophyton mentagrophytes, Epidermophyton floccosum. With the exception of Candida glabrata (one isolate), two isolates of each species were tested.
(§3) The minimum lethal concentration (MLC) was determined by plating […] from the MIC concentration and each concentration above the MIC. […] When a MIC was obtained, a minimum fungicidal concentration (MFC) was determined to assess the fungistatic/fungicidal nature of the compound.

Candida albicans = assay: as above; format: cell-based; settings: Candida albicans; C. albicans 90028; read-out: MIC
Experimental: as §1, §2, §3

Candida glabrata = assay: as above; format: cell-based; settings: Nakaseomyces glabratus; C. glabrata; read-out: MIC
Experimental: as §1, §2, §3

Trichophyton rubrum = assay: as above; format: cell-based; settings: in words
Experimental: as §1, §2, §3

[2] = system: Trichophyton mentagrophytes; assay: as above; format: cell-based; settings: in words
Experimental: Specifically, disclosed compounds were evaluated alongside commercially available microtubulin inhibitors as well as recognized antifungal agents. […].
as §2
Drug concentrations were 0.03-16 μg/ml for the investigational compounds, 0.015-8 μg/ml for itraconazole and griseofulvin.
as §3, with “compound. […] The compound is scored as fungistatic if the cells are able to resume growth and fungicidal if no regrowth is possible because the compound had killed the organisms.” for “compound.”

[3] = system: HT-29 human colorectal carcinoma cells; assay: Cell growth inhibition assay, resazurin (Table 3.2); format: cell-based; settings: Table 3.2, HT-29 cells, read-out: EC50 (M) Mean
Experimental: The cytotoxic effects of various derivatives of dehydrophenylahistin against HT-29 human colorectal carcinoma cells were determined.
HT-29 cells (ATCC; HTB-38) were maintained in ATCC recommended culture media and cultured in an incubator at 37° C. in 5% CO2 and 95% humidified air.
For cell growth inhibition assays, HT-29 cells were seeded at 5×10^3 cells/well in 90 μl complete media into a Corning 3904 black-walled, clear-bottom tissue culture plates and the plates were incubated overnight to allow cells to establish and enter log phase growth. 20 mM stock solutions of compounds were prepared in 100% DMSO and stored at −80° C. 10× concentrated serial dilutions of the compounds were prepared in culture medium for final concentrations ranging from 20 μM to […]. Ten μl volumes of the 10× serial dilutions were added to the test wells in triplicate and the plates returned to the incubator for 48 hours. The final concentration of DMSO was 0.25% in all samples.
(§4) Following 48 hours of drug exposure, 10 μl of 0.2 mg/ml resazurin (obtained from Sigma-Aldrich Chemical Co.) in Mg^2+, Ca^2+ free phosphate buffered saline was added to each well and the plates were returned to the incubator for 3-4 hours. […] Resazurin dye in medium without cells was used to determine the background, which was subtracted from the data for all experimental wells.

B16-F10 melanoma = assay: Cell growth inhibition assay, resazurin (Example 11); format: cell-based; settings: Mus musculus, 48 hours, mean ± SD where n ≧ 3
Experimental: (§5) The growth inhibitory activity of NPI-2421, NPI-2463, NPI-2503 and NPI-2504 were determined against selected human (colorectal adenocarcinoma, HT-29; breast adenocarcinoma, MDA-MB-231; non-small cell lung carcinoma, NCI-H292 and prostate carcinomas, PC-3 and DU 145) and mouse (melanoma, B16-F10) tumor cell lines.
(§6) HT-29 (HTB-38), MDA-MB-231 (HTB-26), NCI-H292 (CRL-1848), B16-F10 (CRL-6475), PC-3 (CRL-1435) and DU 145 (HTB-81) cells were all purchased from the ATCC. The cell lines were maintained in their respective ATCC recommended culture media and cultured in an incubator at 37° C. in 5% CO2 and 95% humidified air.
(§7) 20 mM stock solutions of compounds were prepared in 100% DMSO and stored at −80° C. 10× concentrated serial dilutions of the compounds were prepared in B16-F10 cell culture medium for final concentrations ranging from 20 μM to […]. Ten μl volumes of the 10× serial dilutions were added to the test wells in triplicate and the plates returned to the incubator for 48 hours. The final concentration of DMSO was 0.25% in all samples.
as §4, with “3-6” for “3-4”

[4] = system: HT-29 colorectal adenocarcinoma; assay: as above; format: cell-based; settings: Homo sapiens, 48 hours, mean ± SD where n ≧ 3
Experimental: as §5, §6, §7
as §4, with “3-6” for “3-4”

[5] = system: MDA-MB-231 breast adenocarcinoma; assay: as above; format: cell-based; settings: Homo sapiens, 48 hours, mean ± SD where n ≧ 3
Experimental: as §5, §6, §7
as §4, with “3-6” for “3-4”

[6] = system: NCI-H292 non-small cell lung carcinoma; assay: as above; format: cell-based; settings: Homo sapiens, 48 hours, mean ± SD where n ≧ 3, ** n = 1
Experimental: as §5, §6, §7
as §4, with “3-6” for “3-4”

PC-3 prostate carcinoma = assay: as above; format: cell-based; settings: Homo sapiens, 48 hours, mean ± SD where n ≧ 3, ** n = 1
Experimental: as §5, §6, §7
as §4, with “3-6” for “3-4”

[7] = system: MES-SA human uterine sarcoma; assay: as above; format: cell-based; settings: mean ± standard deviation of three independent experiments
Experimental: (§8) Human uterine sarcoma (MES-SA; CRL-1976), its multidrug resistant derivative (MES-SA/Dx5; CRL-1977), human acute promyelocytic leukemia cells (HL-60; CCL-240) and its multidrug resistant derivative (HL-60/MX2; CRL-2257) were purchased from ATCC and maintained in appropriate culture media. The cells were cultured in an incubator at 37° C. in 5% CO2 and 95% humidified air.
(§9) For cell growth inhibition assays, MES-SA and MES-SA/Dx5 cells were both seeded at 3×10^3 cells/well in 90 μl complete media into 96 well (Corning; 3904) black-walled, clear-bottom tissue culture plates and the plates were incubated overnight to allow cells to establish and enter log phase growth. HL-60 and HL-60/MX2 cells were both seeded at 5×10^4 cells/well in 90 μl complete media into 96 well plates on the day of compound addition. 20 mM stock solutions of the compounds were prepared in 100% DMSO and stored at −80° C. […] Ten μl volumes of the 10× serial dilutions were added to the test wells in triplicate and the plates returned to the incubator for 48 hours. The final concentration of DMSO was 0.25% in all samples.
as §4, with “3-6” for “3-4”
(§10) The multidrug resistant MES-SA/Dx5 tumor cell line was derived from the human uterine sarcoma MES-SA tumor cell line and expresses elevated P-Glycoprotein (P-gp), an ATP dependent efflux pump. The data in Table 19 summarize the growth inhibitory effects of NPI-2421, NPI-2463, NPI-2503, NPI-2504 and NPI-2506 against MES-SA and its multidrug resistant derivative MES-SA/Dx5. Paclitaxel, a known substrate of the P-gp pump was included as a control.

[8] = system: MES-SA/Dx5 multidrug resistant; assay: as above; format: cell-based, human; settings: for EC50: Homo sapiens, MES-SA/Dx5, mean ± standard deviation of three independent experiments; for cytotoxic activity against both MES-SA and MES-SA/Dx5: in words; for Fold change: ratio of EC50 values (MES-SA/Dx5:MES-SA)
Experimental: as §8, §9
as §4, with “3-6” for “3-4”
as §10

[9] = system: HL-60 human acute promyelocytic leukemia cells; assay: as above; format: cell-based; settings: mean values of two independent experiments
Experimental: as §8, §9
as §4, with “3-6” for “3-4”
(§11) HL-60/MX2 is a multidrug resistant tumor cell line derived from the human promyelocytic leukemia cell line, HL-60 and expresses reduced topoisomerase II activity. The data presented in Table 20 summarize the growth inhibitory effects of NPI-2421, NPI-2463, NPI-2503, NPI-2504 and NPI-2506 against HL-60 and its multidrug resistant derivative HL-60/MX2. Mitoxantrone, the topoisomerase II targeting agent was included as a control.

[10] = system: HL-60/MX2 multidrug resistant; assay: as above; format: cell-based, human; settings: for EC50: Homo sapiens, HL60/MX2, HL-60/MX2, mean values of two independent experiments; for cytotoxic activity against both HL-60 and HL-60/MX2: in words; for Fold change: ratio of EC50 values (HL-60/MX2:HL-60)
Experimental: as §8, §9
as §4, with “3-6” for “3-4”
as §11

[11] = system: HT-29 human colorectal carcinoma cells; assay: Cytotoxic effect against HT-29 cells (Table 30); format: cell-based
Experimental: The following additional dehydrophenylahistin derivatives were synthesized according to the methods described herein and their cytotoxic effect against HT-29 human colorectal carcinoma cells were determined.

[12] = system: PC-3 prostatic adenocarcinoma cells; assay: Tumor cytotoxicity assay, resazurin fluorescence, 48 h (Example 6); format: cell-based, human; settings: Homo sapiens, read-out: EC50 (nM) PC-3
Experimental: 10× concentrated serial dilutions of the two compounds were prepared in appropriate culture medium for final concentrations ranging from 2.0×10^−5 M to 2.0×10^−10 M. Ten μl volumes of the 10× serial dilutions were added to the test wells in triplicate and the plates returned to the incubator for 48 hours.
as §4, with “exposure” for “exposure,”, “PBS” for “phosphate buffered saline”, “dye” for “dye in medium”, “wells. The data were analyzed using Prism software (GraphPad Software).” for “wells.”
PC-3, a human prostate adenocarcinoma, was maintained in F12K complete medium (F12K medium supplemented with 10% FBS; 2 mM Glutamine; 1% HEPES; and Pen/Strep at 100 IU/ml and 100 µg/ml, respectively).

[13] = HT-29 cells, read-out: EC50 (M) Mean

MIC (Aspergillus fumigatus; A. fumigatus isolate #1): > 16 µg/mL
MIC (Aspergillus fumigatus; A. fumigatus isolate #2): > 16 µg/mL
MIC (Candida albicans): > 70 µg/mL
MIC (Candida glabrata): > 70 µg/mL
Structure (SMILES): C=CC(C)(C)c1[nH]cnc1/C=C1\NC(=O)[C@H](Cc2ccccc2)NC1=O [(−)-Phenylahistin, reference compound]
EC50 (HT-29 human colon cells; HT-29, Table 2, read-out: EC50 (nM) HT-29): 1600 nM
IC50 [1]: 833 ± 153 nM
antifungal potency versus T. rubrum (Trichophyton rubrum): significantly less potent than the other compounds
antifungal potency versus the sensitive T. mentagrophytes isolate [2]: weaker but more comparable to the others

EC50 [3]: 1.14e-08 M
EC50 (B16-F10 melanoma): 16 ± 2 nM
EC50 [4]: 17 nM
EC50 [5]: 21 nM
EC50 [6]: 52 nM
EC50 (PC-3 prostate carcinoma): > 2000 nM
EC50 [7]: 13 ± 3 nM
EC50 [9]: 28 nM
EC50 [10]: 19 nM
Structure (SMILES): CC(C)(C)c1ocnc1/C=c1\[nH]c(=O)/c(=C/c2cc(F)cc(F)c2F)[nH]c1=O [Compound 2503, tBu-oxadelta-PLH-2,3,5-trifluoro]
EC50 [8]: 13 ± 3 nM
cytotoxic activity against both MES-SA and MES-SA/Dx5 [8]: retained equivalent cytotoxic activity
Fold change [8]: 1.0
cytotoxic activity against both HL-60 and HL-60/MX2 [10]: retained cytotoxic activity
Fold change [10]: 0.7

EC50 [3]: 2.4e-08 M
EC50 [7]: 22 ± 3 nM
EC50 [9]: 32 nM
EC50 [10]: 31 nM
Structure (SMILES): CC(C)(C)c1ocnc1/C=c1\[nH]c(=O)/c(=C/c2c(F)ccc(F)c2F)[nH]c1=O [Compound 2506, tBu-oxadelta-PLH-2,3,6-trifluoro]
EC50 [8]: 27 ± 6 nM
cytotoxic activity against both MES-SA and MES-SA/Dx5 [8]: retained equivalent cytotoxic activity
Fold change [8]: 1.2
cytotoxic activity against both HL-60 and HL-60/MX2 [10]: retained cytotoxic activity
Fold change [10]: 1.0

Structure (SMILES): CC(C)(C)c1[nH]cnc1/C=c1\[nH]c(=O)/c(=C/c2cccc(OP(=O)(O)O)c2)[nH]c1=O [Compound 2521]
EC50 ([11]; HT-29, read-out: EC50 (M) Mean): 2.8e-07 M

Structure (SMILES): COC(=O)c1cccc(/C=c2\[nH]c(=O)/c(=C/c3nc[nH]c3C(C)(C)C)[nH]c2=O)c1 [Compound 2527]
EC50 ([11]; HT-29, read-out: EC50 (M) Mean): 1.9e-07 M

Structure (SMILES): CC(C)(C)c1[nH]cnc1/C=c1\[nH]c(=O)/c(=C/c2cccc(C(=O)O)c2)[nH]c1=O [Compound 2528]
EC50 [11, 13]: > 2e-05 M

Structure (SMILES): CC(C)(C)c1[nH]cnc1/C=c1\[nH]c(=O)/c(=C/c2cccc(C(N)=O)c2)[nH]c1=O [Compound 2529]
EC50 ([11]; HT-29, read-out: EC50 (M) Mean): 5e-06 M

Structure (SMILES): CC(C)(C)c1ocnc1/C=c1\[nH]c(=O)/c(=C/c2cccc(C(N)=O)c2)[nH]c1=O [Compound 2533]
EC50 [11, 13]: 1.8e-06 M

Structure (SMILES): CC(C)(C)c1ocnc1/C=c1\[nH]c(=O)/c(=C/c2cccc(C(=O)c3ccc(CN)cc3)c2)[nH]c1=O [Compound 2534]
EC50 ([11]; HT-29, read-out: EC50 (M) Mean): 5.3e-07 M

Structure (SMILES): CC(C)(C)c1ocnc1/C=c1\[nH]c(=O)/c(=C/c2cccc(C(=O)c3ccc(CNC(=O)CCCCCNC(=O)CCCCCNC(=O)CCCC[C@@H]4SC[C@H]5NC(=O)N[C@@H]45)cc3)c2)[nH]c1=O [Compound 2545]
EC50 [11, 13]: 1.1e-06 M

Structure (SMILES): CC(C)(C)c1[nH]cnc1/C=c1\[nH]c(=O)/c(=C/c2ccccc2)[nH]c1=O [tBu-ΔPLH]
EC50 (HT-29 human colon cells; HT-29, read-out: EC50 (nM) HT29, Table 1): 13 nM
EC50 [12]: 1 nM
